In test [1] the target is Luciferin 4-monooxygenase (Photinus pyralis, UniProt P08659). The test can be described thus: firefly luciferase enzyme inhibitors, dose response, biochemical, luminescence (AID 1891).
Test [2] addresses T1, Heat shock factor protein 1 (Mus musculus, UniProt P38532).
T1 sequence (P38532 whole entry): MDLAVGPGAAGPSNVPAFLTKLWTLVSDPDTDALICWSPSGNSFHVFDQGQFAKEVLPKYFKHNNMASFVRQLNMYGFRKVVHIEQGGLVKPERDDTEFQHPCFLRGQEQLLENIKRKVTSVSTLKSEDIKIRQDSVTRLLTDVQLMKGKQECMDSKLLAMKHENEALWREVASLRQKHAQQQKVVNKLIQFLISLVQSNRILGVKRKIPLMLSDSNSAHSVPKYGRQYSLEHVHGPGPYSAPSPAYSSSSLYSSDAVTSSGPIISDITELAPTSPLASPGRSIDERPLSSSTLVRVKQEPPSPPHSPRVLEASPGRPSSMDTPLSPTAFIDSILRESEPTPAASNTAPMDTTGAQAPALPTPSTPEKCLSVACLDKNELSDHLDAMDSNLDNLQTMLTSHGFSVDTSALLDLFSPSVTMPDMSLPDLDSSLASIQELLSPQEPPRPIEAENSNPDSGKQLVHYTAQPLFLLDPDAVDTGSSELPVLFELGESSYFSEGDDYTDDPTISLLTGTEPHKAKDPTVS
Put plainly: inhibition of MG132-induced HSE-luciferase signal, confirmation, cell-based, NIH3T3, luminescence, dose retest (AID 2382).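 Also: NIH3T3 fibroblasts with HSF1-driven luciferase reporter stressed by proteasome inhibitor MG132; luminescence from HSF1-driven luciferase expression after 8 hours of MG132 stress.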 Format: functional.

Test [3] in a line: cytotoxicity in HEK-293T cells, dose response, cytotoxicity control for TCR NF-kB inhibitor project, luminescence, T-cell screen hits (AID 489026).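 Also: cells exposed to compound about 14 hours before the viability readout.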 In kind it is functional, cell-based.
The nature of test [4]: Luminescence Cell-Based Dose Confirmation HTS to Identify Inhibitors of Platelet Dense Granule Release. [Related pubchem assays: 1663 (Primary HTS), 1678 (Summary of Project)]. Format: functional.
The nature of test [5]: Luminescence-based counterscreen assay for KLF5 inhibitors: dose response cell-based high throughput screening assay to identify cytotoxic compounds using the IEC-6 intestinal epithelial cell line. [Related pubchem assays: 1700 (Primary screen.), 1834 (Confirmation screen.), 1858 (Summary AID.), 1905 (Counterscreen.)]. Format: functional. Background: The purpose of a counterscreen is to sort out artefacts and off-target activity.

In test [6] the target is T2, Bcl-2-like protein 10 (Homo sapiens, UniProt Q9HD36).
T2 sequence (Q9HD36 whole entry): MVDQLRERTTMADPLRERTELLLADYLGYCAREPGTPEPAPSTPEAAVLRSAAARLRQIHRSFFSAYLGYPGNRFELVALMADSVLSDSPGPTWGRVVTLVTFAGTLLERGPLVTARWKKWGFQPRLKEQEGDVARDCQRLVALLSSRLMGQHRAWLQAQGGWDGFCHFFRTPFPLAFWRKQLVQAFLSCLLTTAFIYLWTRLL
The test can be described thus: Biochemical TR3 FP assay of Bcl-B inhibitor potency, EC50 (AID 1243). Format: functional.

Test [7] deals with T3, Replicative DNA helicase DnaB (Mycobacterium tuberculosis, UniProt P9WMR3).
T3 sequence (P9WMR3 whole entry): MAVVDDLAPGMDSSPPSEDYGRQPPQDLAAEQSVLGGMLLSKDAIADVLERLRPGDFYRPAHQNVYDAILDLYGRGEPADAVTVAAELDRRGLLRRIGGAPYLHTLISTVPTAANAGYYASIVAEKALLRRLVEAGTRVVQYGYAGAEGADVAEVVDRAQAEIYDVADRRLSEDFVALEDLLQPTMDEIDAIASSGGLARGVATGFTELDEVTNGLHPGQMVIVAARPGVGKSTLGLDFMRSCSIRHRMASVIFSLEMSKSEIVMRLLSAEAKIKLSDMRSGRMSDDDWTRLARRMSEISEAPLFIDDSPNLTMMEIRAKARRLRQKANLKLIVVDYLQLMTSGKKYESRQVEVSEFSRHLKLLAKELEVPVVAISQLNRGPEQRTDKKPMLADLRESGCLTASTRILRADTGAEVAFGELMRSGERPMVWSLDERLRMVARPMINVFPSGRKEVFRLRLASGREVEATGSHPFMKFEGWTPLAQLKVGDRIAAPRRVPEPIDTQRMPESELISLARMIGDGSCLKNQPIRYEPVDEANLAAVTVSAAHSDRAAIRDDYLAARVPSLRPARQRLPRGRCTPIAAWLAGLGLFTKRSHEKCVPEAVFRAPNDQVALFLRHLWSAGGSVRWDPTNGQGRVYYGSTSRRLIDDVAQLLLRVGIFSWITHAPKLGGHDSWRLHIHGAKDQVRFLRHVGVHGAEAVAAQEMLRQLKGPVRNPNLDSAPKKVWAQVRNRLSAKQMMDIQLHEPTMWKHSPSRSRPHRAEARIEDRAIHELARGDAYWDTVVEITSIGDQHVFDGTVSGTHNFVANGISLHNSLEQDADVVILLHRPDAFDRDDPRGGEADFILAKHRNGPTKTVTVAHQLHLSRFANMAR
Put plainly: DnaB intein splicing inhibitors, dose response, biochemical, cell-free fluorescence (AID 449749). In kind it is functional.

In test [8] the target is T4, Streptokinase A (Streptococcus pyogenes serotype M1, UniProt P10520).
T4 sequence (P10520 whole entry): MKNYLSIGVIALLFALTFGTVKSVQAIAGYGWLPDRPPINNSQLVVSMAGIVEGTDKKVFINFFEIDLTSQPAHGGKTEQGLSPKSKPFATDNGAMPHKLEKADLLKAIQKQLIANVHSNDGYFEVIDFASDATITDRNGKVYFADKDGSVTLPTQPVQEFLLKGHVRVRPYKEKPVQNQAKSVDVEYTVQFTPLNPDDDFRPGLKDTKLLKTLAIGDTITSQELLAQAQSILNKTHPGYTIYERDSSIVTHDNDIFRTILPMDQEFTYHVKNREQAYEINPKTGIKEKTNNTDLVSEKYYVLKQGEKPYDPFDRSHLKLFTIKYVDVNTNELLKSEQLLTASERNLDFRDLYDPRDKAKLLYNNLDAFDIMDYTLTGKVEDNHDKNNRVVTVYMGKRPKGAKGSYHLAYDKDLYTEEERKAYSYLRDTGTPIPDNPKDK
The test can be described thus: S. pyogenes streptokinase expression inhibitors, potency, dose response, plasminogen activation absorbance, OD405 (AID 1914).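 Also: secreted streptokinase activity via plasminogen activation per viability signal from cell pellet.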 In kind it is functional, Streptococcus pyogenes M1 GAS.

Test [9] concerns Streptococcus. The test can be described thus: Group A Streptococcus viability loss, dose response, counter-screen for streptokinase expression inhibitor project, luminescence, BacTiterGlo (AID 1915).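 Also: potency for reduction of bacterial viability or growth.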 In kind it is functional, organism-based.
Test [10] has as its target T5, Protein RecA (Mycobacterium tuberculosis, UniProt P9WHJ3).
T5 sequence (P9WHJ3 whole entry): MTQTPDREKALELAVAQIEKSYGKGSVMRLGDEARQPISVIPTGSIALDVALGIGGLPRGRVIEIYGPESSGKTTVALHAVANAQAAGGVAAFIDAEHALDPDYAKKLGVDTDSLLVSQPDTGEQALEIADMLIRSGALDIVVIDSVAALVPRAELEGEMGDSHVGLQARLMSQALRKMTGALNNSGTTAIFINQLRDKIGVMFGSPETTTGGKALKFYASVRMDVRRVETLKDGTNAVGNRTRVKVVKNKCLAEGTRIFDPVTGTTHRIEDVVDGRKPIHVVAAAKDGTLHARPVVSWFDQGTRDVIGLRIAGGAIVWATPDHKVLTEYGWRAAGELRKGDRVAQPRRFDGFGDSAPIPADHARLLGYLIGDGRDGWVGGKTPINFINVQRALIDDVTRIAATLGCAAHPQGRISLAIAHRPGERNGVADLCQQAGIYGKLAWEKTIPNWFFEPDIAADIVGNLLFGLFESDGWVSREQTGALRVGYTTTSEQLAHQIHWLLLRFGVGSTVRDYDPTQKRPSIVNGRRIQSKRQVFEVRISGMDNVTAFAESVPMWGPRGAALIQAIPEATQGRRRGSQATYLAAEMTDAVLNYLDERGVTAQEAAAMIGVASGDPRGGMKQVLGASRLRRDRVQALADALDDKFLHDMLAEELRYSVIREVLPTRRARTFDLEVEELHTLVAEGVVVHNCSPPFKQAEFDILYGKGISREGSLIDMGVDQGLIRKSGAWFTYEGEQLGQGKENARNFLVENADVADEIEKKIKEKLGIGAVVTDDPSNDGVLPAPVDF
The test can be described thus: Fluorescence Cell-Free Homogeneous Dose Retest to Identify Inhibitors of RecA-Intein Splicing Activity. [Related pubchem assays (depositor defined):AID2097, AID2223, AID489010, AID492950]. Format: functional.

The nature of test [11]: HIV-1 Env-mediated cell fusion inhibitors, dose response, CCR5-tropic Env (AID 2279). In kind it is functional.
The target of test [12] is T6, Aminopeptidase N (Plasmodium falciparum FcB1/Columbia, UniProt O96935).
T6 sequence (O96935 whole entry): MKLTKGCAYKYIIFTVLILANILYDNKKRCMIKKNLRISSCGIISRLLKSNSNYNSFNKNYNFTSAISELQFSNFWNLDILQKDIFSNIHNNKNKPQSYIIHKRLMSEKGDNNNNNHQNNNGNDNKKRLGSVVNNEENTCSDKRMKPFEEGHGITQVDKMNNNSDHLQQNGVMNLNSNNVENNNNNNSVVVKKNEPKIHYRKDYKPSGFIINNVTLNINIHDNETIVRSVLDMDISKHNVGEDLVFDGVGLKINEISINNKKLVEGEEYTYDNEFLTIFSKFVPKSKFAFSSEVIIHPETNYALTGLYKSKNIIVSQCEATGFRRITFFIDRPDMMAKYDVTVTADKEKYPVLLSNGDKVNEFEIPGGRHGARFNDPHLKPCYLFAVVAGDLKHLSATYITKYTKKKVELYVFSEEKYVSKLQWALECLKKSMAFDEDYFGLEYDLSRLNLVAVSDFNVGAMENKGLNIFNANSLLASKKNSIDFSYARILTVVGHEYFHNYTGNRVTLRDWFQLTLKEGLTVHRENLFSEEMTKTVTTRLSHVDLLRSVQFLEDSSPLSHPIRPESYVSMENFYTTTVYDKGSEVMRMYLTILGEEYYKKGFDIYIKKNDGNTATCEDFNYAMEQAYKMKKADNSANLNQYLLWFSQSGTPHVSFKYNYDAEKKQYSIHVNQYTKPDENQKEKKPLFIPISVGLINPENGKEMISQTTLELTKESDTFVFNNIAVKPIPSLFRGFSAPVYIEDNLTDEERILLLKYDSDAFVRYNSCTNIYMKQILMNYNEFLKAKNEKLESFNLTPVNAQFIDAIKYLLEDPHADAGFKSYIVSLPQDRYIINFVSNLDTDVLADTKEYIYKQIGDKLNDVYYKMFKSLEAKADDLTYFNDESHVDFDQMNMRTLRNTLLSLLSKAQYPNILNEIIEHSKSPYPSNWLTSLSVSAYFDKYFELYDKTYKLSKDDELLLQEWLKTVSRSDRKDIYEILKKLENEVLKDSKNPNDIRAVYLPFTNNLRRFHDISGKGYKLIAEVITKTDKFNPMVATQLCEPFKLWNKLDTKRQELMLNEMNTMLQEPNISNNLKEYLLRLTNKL
The test can be described thus: P. falciparum M1AAP inhibitors, biochemical, fluorogenic H-Leu-NHMec substrate, 1536-well (AID 1445). Also on record: species or system Plasmodium falciparum 3D7, 3D7.

Test [13] relates to Streptococcus sp. 'group A'. Put plainly: growth inhibition of control SK(-) GAS strain, dose response, counter-screen for streptokinase expression inhibitor project, luminescence, kanamycin, BacTiterGlo, confirmation (AID 1900). Format: functional, organism-based.
Test [14] has as its target Genome polyprotein (dengue virus type 2, UniProt P29990). The test can be described thus: Dengue-2 NS5 methyltransferase inhibitors, primary screen, biochemical, confirmation dose response (AID 588689). Format: functional.
Test [15] concerns the target NS3 (Hepatitis C virus, UniProt A3EZJ3). Put plainly: PubChem AID 2173. Also on record: species or system Hepacivirus hominis.

Our source for the EC50, IC50 and AC50 values is ChEMBL document CHEMBL1201862, “PubChem BioAssay data set” (2004).

Molecules are shown by their SMILES. Calls of active or inactive are those of the source.

Genome polyprotein, sequence (P29990 2492-3391 limits assumed): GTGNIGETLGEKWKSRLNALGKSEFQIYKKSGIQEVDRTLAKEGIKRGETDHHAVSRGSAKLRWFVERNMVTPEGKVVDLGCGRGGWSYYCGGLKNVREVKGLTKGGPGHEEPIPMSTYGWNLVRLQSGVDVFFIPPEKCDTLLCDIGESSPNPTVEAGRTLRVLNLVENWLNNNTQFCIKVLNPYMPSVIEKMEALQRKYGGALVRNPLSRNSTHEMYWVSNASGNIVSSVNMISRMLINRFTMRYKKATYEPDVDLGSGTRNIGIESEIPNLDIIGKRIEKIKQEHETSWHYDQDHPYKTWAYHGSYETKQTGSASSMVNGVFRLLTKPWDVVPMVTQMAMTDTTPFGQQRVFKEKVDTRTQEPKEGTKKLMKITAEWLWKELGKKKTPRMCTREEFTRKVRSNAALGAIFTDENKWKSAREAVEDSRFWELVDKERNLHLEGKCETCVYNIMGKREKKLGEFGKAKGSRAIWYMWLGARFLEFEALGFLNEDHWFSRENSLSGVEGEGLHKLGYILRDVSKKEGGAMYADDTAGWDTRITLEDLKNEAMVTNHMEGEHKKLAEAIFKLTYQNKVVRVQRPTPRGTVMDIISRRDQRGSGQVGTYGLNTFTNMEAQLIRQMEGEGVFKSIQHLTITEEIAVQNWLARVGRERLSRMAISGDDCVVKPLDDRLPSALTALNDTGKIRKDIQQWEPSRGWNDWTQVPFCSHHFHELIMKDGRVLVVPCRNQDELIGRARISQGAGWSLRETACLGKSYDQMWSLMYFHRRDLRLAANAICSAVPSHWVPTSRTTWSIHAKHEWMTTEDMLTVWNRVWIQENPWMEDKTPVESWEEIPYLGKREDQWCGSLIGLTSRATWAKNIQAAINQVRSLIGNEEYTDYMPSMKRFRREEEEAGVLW
Luciferin 4-monooxygenase, sequence (P08659 whole entry): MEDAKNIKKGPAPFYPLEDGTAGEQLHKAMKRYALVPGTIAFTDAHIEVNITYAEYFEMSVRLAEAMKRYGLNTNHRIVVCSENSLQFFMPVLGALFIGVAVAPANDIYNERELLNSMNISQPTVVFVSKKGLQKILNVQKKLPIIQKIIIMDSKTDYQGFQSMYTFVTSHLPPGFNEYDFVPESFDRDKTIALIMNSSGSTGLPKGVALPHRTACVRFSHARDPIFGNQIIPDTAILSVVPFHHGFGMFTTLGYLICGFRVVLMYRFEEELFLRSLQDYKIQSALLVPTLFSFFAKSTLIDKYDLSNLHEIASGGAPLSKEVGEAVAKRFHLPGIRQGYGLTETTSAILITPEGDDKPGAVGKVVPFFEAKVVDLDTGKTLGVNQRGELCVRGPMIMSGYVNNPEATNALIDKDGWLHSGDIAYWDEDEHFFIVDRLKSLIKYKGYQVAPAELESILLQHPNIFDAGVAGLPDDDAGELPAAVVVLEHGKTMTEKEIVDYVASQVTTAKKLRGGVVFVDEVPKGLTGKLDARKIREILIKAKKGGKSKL
NS3, sequence (A3EZJ3 whole entry): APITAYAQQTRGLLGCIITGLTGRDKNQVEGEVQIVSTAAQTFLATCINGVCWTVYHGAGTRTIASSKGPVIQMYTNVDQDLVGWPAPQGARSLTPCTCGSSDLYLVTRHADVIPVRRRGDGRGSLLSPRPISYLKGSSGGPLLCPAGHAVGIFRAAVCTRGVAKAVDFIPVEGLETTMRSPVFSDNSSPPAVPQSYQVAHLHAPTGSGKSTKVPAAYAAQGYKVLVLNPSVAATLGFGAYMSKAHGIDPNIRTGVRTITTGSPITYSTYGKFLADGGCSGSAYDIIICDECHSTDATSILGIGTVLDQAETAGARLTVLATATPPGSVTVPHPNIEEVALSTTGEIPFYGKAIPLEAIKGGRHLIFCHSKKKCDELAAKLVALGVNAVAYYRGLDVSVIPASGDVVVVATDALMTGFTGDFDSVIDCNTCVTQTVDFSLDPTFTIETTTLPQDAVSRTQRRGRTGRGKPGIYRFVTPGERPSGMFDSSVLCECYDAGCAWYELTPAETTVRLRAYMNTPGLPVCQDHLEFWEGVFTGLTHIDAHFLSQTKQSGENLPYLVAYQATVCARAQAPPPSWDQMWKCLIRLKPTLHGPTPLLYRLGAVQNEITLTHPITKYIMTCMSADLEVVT

As usually defined, the EC50 is the concentration needed to bring the measured effect to its halfway point. As a reminder, the IC50 is the point on the concentration scale where inhibition reaches its midpoint. For `O=C(Nc1ccc(N2CCCCC2)cc1)c1ccccn1`, the EC50 in test [1] is 1.06 µM (active); in test [2] it was < 160 nM (active); in test [4], 1.49 µM (active). Besides, the IC50 in test [3] was > 80 µM (inactive); in test [5], 13.3 µM (not active).
Take `CCOc1ccc(/C=C(/NC(=O)c2ccc(C)cc2)C(=O)NCCO)cc1`: the EC50 in test [6] was 13.2 µM (active).
By AC50 is commonly meant the concentration giving half of the maximal activity seen. Regarding `O=C(O)c1ccccc1-c1ccccc1C(=O)Nc1ccc(-c2nc3cc(Cl)ccc3o2)cc1`, in test [7], the half-maximal activity concentration (AC50) is 3.18 µM (active). Moreover, the EC50 in [8] was > 150 µM (not active); in test [9], 14 µM (active); in test [10], 11.7 µM (active); in [13] it was 7.55 µM (active). In addition, the IC50 is > 50 µM (active) in test [11], 32.6 µM (active) in [12] and 54 µM (active) in test [14].
Take `NS(=O)(=O)c1ccc2nc(NC(=O)c3ccc4ncsc4c3)sc2c1`: the half-inhibitory concentration (IC50) in [15] is on record as 32 µM (not active).
